Test results published in the COVID Moonshot data (paper PMC7615835).
pIC50: −log10 of the molar value. Where “and” joins values, the source holds several entries; their conditions need not be identical. Equal values may be shown once.

How the values were obtained:
[1] = biological target: SARS-CoV-2 Main Protease (SARS-CoV-2) (UniProt P0DTD1)
[2] = in vivo, iv, 0.5 mg/kg

Compound: CS(=O)(=O)c1ccc2cncc(NC(=O)C3CCOc4cc(F)c(Cl)cc43)c2c1 (stereo unspecified)
- pIC50 [1]: 5.72 and 5.90
- CC50 (a549): > 9990 nM

Compound: CCCc1cc(Cl)cc(CC(=O)Nc2cncc3ccccc23)c1
- pIC50 [1]: 5.58
- CC50 (a549): > 9990 nM

Compound: O=C(Cc1cccc(Cl)c1)Nc1cnc2ccccn12
- AUC(0-inf) ([2]; rat): 285 ng·h/mL and 249 ng·h/mL
- AUC(0-t) ([2]; rat): 284 ng·h/mL and 247 ng·h/mL
- C0 ([2]; rat): 663 ng/mL and 588 ng/mL
- MRT inf ([2]; rat): 26.8 min and 26.9 min
- MRT last ([2]; rat): 26.4 min and 25.6 min
- Vd ([2]; rat): 0.788 L/kg and 0.895 L/kg
- clearance ([2]; rat): 29.2 mL/min/kg and 33.5 mL/min/kg
- half-life ([2]; rat): 25.6 min and 22.8 min
- pIC50 [1]: 5.10

Compound: CS(=O)(=O)N1Cc2ccc(Cl)cc2C(C(=O)Nc2cncc3ccccc23)C1 (stereo unspecified)
- AUC(0-inf) ([2]; mouse): 125 ng·h/mL and 139 ng·h/mL
- AUC(0-t) ([2]; mouse): 124 ng·h/mL and 138 ng·h/mL
- C0 ([2]; mouse): 399 ng/mL and 588 ng/mL
- MRT inf ([2]; mouse): 21.6 min and 18.2 min
- MRT last ([2]; mouse): 20.8 min and 17.6 min
- Vd ([2]; mouse): 1.4 L/kg and 1.06 L/kg
- clearance ([2]; mouse): 64.9 mL/min/kg and 59 mL/min/kg
- half-life ([2]; mouse): 16.7 min

Compound: O=C(Nc1cncc2ccncc12)C1CCNc2cc(Cl)c(Cl)cc21 (stereo unspecified)
- CC50 (a549): > 9990 nM

Compound: O=C(Nc1cncc2cc(Cl)ccc12)C1CCS(=O)(=O)c2ccc(Cl)cc21 (stereo unspecified)
- AUC(0-inf) ([2]; rat): 2140 ng·h/mL and 2940 ng·h/mL
- AUC(0-t) ([2]; rat): 1940 ng·h/mL and 2700 ng·h/mL
- C0 ([2]; rat): 769 ng/mL and 1200 ng/mL
- MRT inf ([2]; rat): 193 min and 199 min
- MRT last ([2]; rat): 148 min and 151 min
- Vd ([2]; rat): 0.774 L/kg and 0.556 L/kg
- clearance ([2]; rat): 3.9 mL/min/kg and 2.9 mL/min/kg
- half-life ([2]; rat): 141 min and 133 min
- pIC50 [1]: 6.08

Compound: O=C(Cc1cccc(Cl)c1)Nc1cnccc1C1CC1
- AUC(0-inf) ([2]; rat): 77 ng·h/mL and 54.5 ng·h/mL
- AUC(0-t) ([2]; rat): 74.1 ng·h/mL and 53.2 ng·h/mL
- C0 ([2]; rat): 260 ng/mL and 176 ng/mL
- MRT inf ([2]; rat): 20.7 min and 17.8 min
- MRT last ([2]; rat): 15.4 min and 18.5 min
- Vd ([2]; rat): 1.92 L/kg and 3.14 L/kg
- clearance ([2]; rat): 108 mL/min/kg and 153 mL/min/kg
- half-life ([2]; rat): 12.5 min and 15.8 min
- pIC50 [1]: 5.14

Compound: CC1(C(=O)Nc2cncc3ccc(S(C)(=O)=O)cc23)CNC(=O)c2ccc(Cl)cc21 (stereo unspecified)
- AUC(0-inf) ([2]; rat): 304 ng·h/mL and 309 ng·h/mL
- AUC(0-t) ([2]; rat): 292 ng·h/mL and 303 ng·h/mL
- C0 ([2]; rat): 660 ng/mL and 636 ng/mL
- MRT inf ([2]; rat): 38.1 min and 34.1 min
- MRT last ([2]; rat): 29.1 min and 35 min
- Vd ([2]; rat): 1.08 L/kg and 1.19 L/kg
- clearance ([2]; rat): 31.8 mL/min/kg and 32.2 mL/min/kg
- half-life ([2]; rat): 26.9 min and 30.5 min
- pIC50 [1]: 5.18

Compound: O=C(Cc1cccc(Cl)c1)Nc1cnn2ccccc12
- AUC(0-inf) ([2]; rat): 209 ng·h/mL and 179 ng·h/mL
- AUC(0-t) ([2]; rat): 201 ng·h/mL and 176 ng·h/mL
- C0 ([2]; rat): 652 ng/mL and 621 ng/mL
- MRT inf ([2]; rat): 31.1 min
- MRT last ([2]; rat): 25.4 min and 27.5 min
- Vd ([2]; rat): 1.24 L/kg and 1.44 L/kg
- clearance ([2]; rat): 39.8 mL/min/kg and 46.6 mL/min/kg
- half-life ([2]; rat): 29.4 min and 33.7 min
- pIC50 [1]: 4.95

Compound: O=C(Cc1cccc(Cl)c1)Nc1cncc2cc[nH]c12
- AUC(0-inf) ([2]; rat): 129 ng·h/mL and 176 ng·h/mL and 114 ng·h/mL
- AUC(0-t) ([2]; rat): 128 ng·h/mL and 172 ng·h/mL and 113 ng·h/mL
- C0 ([2]; rat): 320 ng/mL and 470 ng/mL and 344 ng/mL
- MRT inf ([2]; rat): 29.9 min and 38.2 min and 23 min
- MRT last ([2]; rat): 35.3 min and 27 min and 21.6 min
- Vd ([2]; rat): 2.47 L/kg and 1.46 L/kg and 2.1 L/kg
- clearance ([2]; rat): 64.5 mL/min/kg and 48.4 mL/min/kg and 91.1 mL/min/kg
- half-life ([2]; rat): 42.8 min and 22.7 min and 19.5 min
- pIC50 [1]: 5.72

Compound: O=C(Cn1nc2n(c(=O)c1=O)CCC2)NC(C(=O)Nc1cncc2ccccc12)c1cccc(Cl)c1 (stereo unspecified)
- CC50 (vero): > 9990 nM

Compound: N#Cc1ncc(NC(=O)Cc2cccc(Cl)c2)c2ccccc12
- AUC(0-inf) ([2]; rat): 242 ng·h/mL and 224 ng·h/mL
- AUC(0-t) ([2]; rat): 241 ng·h/mL and 222 ng·h/mL
- C0 ([2]; rat): 809 ng/mL and 728 ng/mL
- MRT inf ([2]; rat): 28.6 min and 29.3 min
- MRT last ([2]; rat): 28.2 min and 26.5 min
- Vd ([2]; rat): 1.17 L/kg and 1.23 L/kg
- clearance ([2]; rat): 39.9 mL/min/kg and 43.2 mL/min/kg
- half-life ([2]; rat): 35.3 min and 42.1 min
- pIC50 [1]: 4.18

Compound: N#CCC(=O)N1Cc2ccc(Cl)cc2C(C(=O)Nc2cncc3ccccc23)C1 (stereo unspecified)
- AUC(0-inf) ([2]; rat): 128 ng·h/mL and 148 ng·h/mL
- AUC(0-t) ([2]; rat): 124 ng·h/mL and 144 ng·h/mL
- C0 ([2]; rat): 404 ng/mL and 370 ng/mL
- MRT inf ([2]; rat): 28.7 min and 29.3 min
- MRT last ([2]; rat): 24.5 min and 25.6 min
- Vd ([2]; rat): 1.61 L/kg and 1.36 L/kg
- clearance ([2]; rat): 54.8 mL/min/kg and 47.4 mL/min/kg
- half-life ([2]; rat): 25.4 min and 22 min
- pIC50 [1]: 6.69

Compound: CS(=O)(=O)N1Cc2ccc(Cl)cc2C(C(=O)Nc2cncc3cccc(F)c23)C1 (stereo unspecified)
- AUC(0-inf) ([2]; rat): 110 ng·h/mL and 136 ng·h/mL
- AUC(0-t) ([2]; rat): 107 ng·h/mL and 134 ng·h/mL
- C0 ([2]; rat): 332 ng/mL and 376 ng/mL
- MRT inf ([2]; rat): 25.8 min and 25.9 min
- MRT last ([2]; rat): 22.9 min and 23.5 min
- Vd ([2]; rat): 1.57 L/kg and 1.26 L/kg
- clearance ([2]; rat): 60.6 mL/min/kg and 48.6 mL/min/kg
- half-life ([2]; rat): 23.9 min and 20.4 min
- pIC50 [1]: 6.02

Compound: COC(=O)N1Cc2ccc(Cl)cc2C(C(=O)Nc2cncc3ccccc23)C1 (stereo unspecified)
- AUC(0-inf) ([2]; rat): 152 ng·h/mL and 94.2 ng·h/mL
- AUC(0-t) ([2]; rat): 150 ng·h/mL and 93.6 ng·h/mL
- C0 ([2]; rat): 411 ng/mL and 345 ng/mL
- MRT inf ([2]; rat): 20.4 min and 24.1 min
- MRT last ([2]; rat): 22.5 min and 19.4 min
- Vd ([2]; rat): 1.32 L/kg and 1.82 L/kg
- clearance ([2]; rat): 54.9 mL/min/kg and 88.6 mL/min/kg
- half-life ([2]; rat): 20 min and 18.2 min
- pIC50 [1]: 6.65

Compound: C=CC(=O)N(C(=O)[C@H]1CCOc2ccc(Cl)cc21)c1cncc2ccccc12 (stereo in doubt)
- CC50 (a549): > 9990 nM
- CC50 (vero): > 9990 nM

Compound: O=C(Nc1cncc2cc(F)ccc12)C1CCS(=O)(=O)c2ccc(Cl)cc21 (stereo unspecified)
- AUC(0-inf) ([2]; rat): 875 ng·h/mL and 1050 ng·h/mL
- AUC(0-t) ([2]; rat): 869 ng·h/mL and 1030 ng·h/mL
- C0 ([2]; rat): 655 ng/mL and 704 ng/mL
- MRT inf ([2]; rat): 118 min and 107 min
- MRT last ([2]; rat): 104 min and 111 min
- Vd ([2]; rat): 1.03 L/kg and 0.95 L/kg
- clearance ([2]; rat): 9.52 mL/min/kg and 8.12 mL/min/kg
- half-life ([2]; rat): 69.6 min and 78 min
- pIC50 [1]: 6.11

Compound: O=C1CC(C(=O)Nc2cncc3ccccc23)c2cc(Cl)c(Cl)cc2N1 (stereo unspecified)
- AUC(0-inf) ([2]; mouse): 199 ng·h/mL and 230 ng·h/mL
- AUC(0-t) ([2]; mouse): 197 ng·h/mL and 226 ng·h/mL
- C0 ([2]; mouse): 268 ng/mL and 390 ng/mL
- MRT inf ([2]; mouse): 44.9 min and 49.9 min
- MRT last ([2]; mouse): 42.4 min and 45.4 min
- Vd ([2]; mouse): 1.88 L/kg and 1.81 L/kg
- clearance ([2]; mouse): 41.9 mL/min/kg and 36.2 mL/min/kg
- half-life ([2]; mouse): 34.4 min and 43.6 min
- pIC50 [1]: 6.71 and 6.45

Compound: COC1(C(=O)Nc2cncc3ccc(S(C)(=O)=O)cc23)CCOc2ccc(Cl)cc21 (stereo unspecified)
- AUC(0-inf) ([2]; mouse): 51.9 ng·h/mL and 61.9 ng·h/mL
- AUC(0-t) ([2]; mouse): 50.3 ng·h/mL
- C0 ([2]; mouse): 142 ng/mL and 157 ng/mL
- MRT inf ([2]; mouse): 31.3 min and 26.9 min
- MRT last ([2]; mouse): 27.4 min and 24.5 min
- Vd ([2]; mouse): 5.03 L/kg and 3.65 L/kg
- clearance ([2]; mouse): 161 mL/min/kg and 135 mL/min/kg
- half-life ([2]; mouse): 25.3 min and 22.1 min
- pIC50 [1]: 6.37

Compound: N#Cc1ccc2cncc(NC(=O)C3CCOc4ccc(Cl)cc43)c2c1 (stereo unspecified)
- CC50 (a549): > 10000 nM

Compound: NC(=O)c1cc2c(NC(=O)C3CCOc4ccc(Cl)cc43)cncc2s1 (stereo unspecified)
- AUC(0-inf) ([2]; rat): 488 ng·h/mL and 612 ng·h/mL
- AUC(0-t) ([2]; rat): 485 ng·h/mL and 604 ng·h/mL
- C0 ([2]; rat): 706 ng/mL and 898 ng/mL
- MRT inf ([2]; rat): 77.4 min and 69 min
- MRT last ([2]; rat): 65.4 min and 70.2 min
- Vd ([2]; rat): 1.18 L/kg and 1.06 L/kg
- clearance ([2]; rat): 17.1 mL/min/kg and 13.7 mL/min/kg
- half-life ([2]; rat): 75 min and 84 min
- pIC50 [1]: 6.12

Compound: O=C1NCC(C(=O)Nc2cncc3ccccc23)c2cc(Cl)ccc21 (stereo unspecified)
- AUC(0-inf) ([2]; rat): 377 ng·h/mL and 428 ng·h/mL and 182 ng·h/mL
- AUC(0-t) ([2]; rat): 374 ng·h/mL and 422 ng·h/mL and 180 ng·h/mL
- C0 ([2]; rat): 443 ng/mL and 648 ng/mL and 439 ng/mL
- MRT inf ([2]; rat): 57.1 min and 75 min and 37.4 min
- MRT last ([2]; rat): 71.4 min and 53 min and 35 min
- Vd ([2]; rat): 1.66 L/kg and 1.12 L/kg and 1.75 L/kg
- clearance ([2]; rat): 22.1 mL/min/kg and 19.5 mL/min/kg and 46.8 mL/min/kg
- half-life ([2]; rat): 64.8 min and 52 min and 34.7 min
- pIC50 [1]: 6.68

Compound: Cn1ncc2cncc(NC(=O)Cc3cccc(Cl)c3)c21
- AUC(0-inf) ([2]; rat): 178 ng·h/mL and 250 ng·h/mL
- AUC(0-t) ([2]; rat): 178 ng·h/mL and 248 ng·h/mL
- C0 ([2]; rat): 820 ng/mL and 1030 ng/mL
- MRT inf ([2]; rat): 19.3 min and 15.2 min
- MRT last ([2]; rat): 14.9 min and 18.1 min
- Vd ([2]; rat): 0.709 L/kg and 0.64 L/kg
- clearance ([2]; rat): 46.7 mL/min/kg and 34.6 mL/min/kg
- half-life ([2]; rat): 14.9 min and 17.9 min
- pIC50 [1]: 5.82
